From patent US9115140B2, “Thienopyrimidine derivatives, processes for the preparation thereof and therapeutic uses thereof” (SANOFI, priority 2012, dated 2015)

Experiments:
[1] = molecular target: GST-Alk protein (wild-type form 1058-1620) (Homo sapiens (Human), UniProt Q9UM73); experiment: HTRF kinase test with GST-Alk protein, wild-type form (ATP 400 microM, enzyme 2 nM); format: biochemical; details: GST-Alk wild-type form 1058-1620, ATP 400 microM
[2] = molecular target: GST-Alk protein (mutant L1196M 1058-1620) (Homo sapiens (Human), UniProt Q9UM73, L1196M); experiment: HTRF kinase test with GST-Alk protein, mutant L1196M (ATP 200 microM, enzyme 1 nM); format: biochemical; details: GST-Alk mutant L1196M 1058-1620, ATP 200 microM
Chain of GST-Alk protein (mutant L1196M 1058-1620) (Q9UM73 1058-1620 L1196M): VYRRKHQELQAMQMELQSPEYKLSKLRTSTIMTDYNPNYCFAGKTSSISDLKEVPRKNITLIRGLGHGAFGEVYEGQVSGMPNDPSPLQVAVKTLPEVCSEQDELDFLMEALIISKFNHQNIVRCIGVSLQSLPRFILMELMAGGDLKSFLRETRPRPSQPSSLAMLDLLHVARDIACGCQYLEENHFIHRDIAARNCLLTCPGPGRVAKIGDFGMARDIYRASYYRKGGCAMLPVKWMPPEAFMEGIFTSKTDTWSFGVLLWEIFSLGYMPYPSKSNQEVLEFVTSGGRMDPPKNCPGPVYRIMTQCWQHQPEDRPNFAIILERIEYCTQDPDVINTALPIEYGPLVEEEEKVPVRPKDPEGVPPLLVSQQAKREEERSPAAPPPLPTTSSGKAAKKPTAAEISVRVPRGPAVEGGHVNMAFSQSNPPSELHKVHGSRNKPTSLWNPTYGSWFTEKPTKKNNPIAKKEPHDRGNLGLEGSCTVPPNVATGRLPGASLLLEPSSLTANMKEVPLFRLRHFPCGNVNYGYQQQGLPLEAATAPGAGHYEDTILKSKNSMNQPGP

Chain of GST-Alk protein (wild-type form 1058-1620) (Q9UM73 1058-1620): as the sequence (Q9UM73 1058-1620 L1196M) above, with M139L counted along it

COc1nc(C)ccc1-c1c(CO)sc2cnc(Nc3cc(C)c(N4CCN(C)CC4)cc3OC(C)C)nc12 [Compound I-191, [7-(2-Methoxy-6-methylpyridin-3-yl)-2-{[5-methyl-4-(4-methylpiperazin-1-yl)-2-(propan-2-yloxy)phenyl]amino}thieno[3,2-d]pyrimidin-6-yl]methanol]
IC50 [1]: 12 nM | IC50 [2]: 14 nM
